Experimental findings from paper PMC7531004, “Discovery of gramicidin A analogues with altered activities by multidimensional screening of a one-bead-one-compound library” (Nature Communications, 2020) are described below.

Where a SMILES comes first, the peptide text is derived from it. [ ]: non-standard residue; d: D form. The star is where a group is joined. NHCH2CH2OH = OCCN*; For = O=C*

Series [1] concerns Streptococcus pyogenes SSI-9. The series can be described thus: Antibacterial activity assay of bead-derived peptides (three concentrations). Type of series: cell-based. The arrangement: key: +++: inhibition by the 640-fold diluted peptide solution; ++: inhibition by the 160-fold diluted solution; +: inhibition by the 40-fold diluted solution; -: no inhibition. As to conditions: S. pyogenes, bead-derived peptide solution, three concentrations. The method in brief: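 Undiluted, 4-fold and 16-fold DMSO-diluted peptide stocks; S. pyogenes SSI-9, 2 × 10^5 CFU, cation-adjusted MHB (50 mg/L Ca2+, 25 mg/L Mg2+) + 5% laked horse blood; 37 °C, 18 h; readout = cell pellet visible or not.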

Series [2] is described as follows: H+/Na+ transport assay of bead-derived peptides (one-point).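 Note: relative to parent gramicidin A activity set to 1.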 The format is biochemical. The arrangement: key: relative activity; mean of two control wells = 1.00. The settings on record: bead-derived peptide solution, EYPC/EYPG LUVs. The method in brief:
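Miniaturized 96-well format. LUVs with entrapped pyranine (1.0 mM) were exposed to peptide for 30 min at RT. Intensities were expressed relative to full lysis by Triton X-100 and no treatment, with control-well mean = 1.00.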

For series [3] the following is noted: cell viability/%. The method in brief: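 P388 cells at 1 × 10^4 cells/mL (final) were exposed to library peptides (stocks diluted 250-fold in RPMI1640/10% FBS) for 92 h at 37 °C, 5% CO2. Viable cells were counted by WST-1/1-methoxy PMS (4 h), absorbance 415 nm, and expressed as cell viability (%).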

Regarding `CC(C)C[C@@H](NC(=O)[C@H](C)NC(=O)CNC(=O)[C@@H](NC=O)C(C)C)C(=O)N[C@@H](C)C(=O)N[C@H](CC(C)C)C(=O)N[C@H](C(=O)N[C@H](CC(C)C)C(=O)N[C@@H](Cc1c[nH]c2ccccc12)C(=O)N[C@@H](C(=O)N[C@@H](Cc1c[nH]c2ccccc12)C(=O)N[C@@H](C(=O)N[C@@H](Cc1c[nH]c2ccccc12)C(=O)N[C@H](CC(C)C)C(=O)N[C@@H](Cc1c[nH]c2ccccc12)C(=O)NCCO)[C@H](C)O)[C@H](C)O)C(C)C` [compound 3244] (For-VGA[dL]A[dL]V[dL]W[dT]W[dT]W[dL]W-NHCH2CH2OH), in series [1], the antibacterial activity result is “-”. For the same compound, the “H+/Na+ transport activity normalized against the value of 1 (1.00)” value (from here on “H+/Na+ transport activity normalized”) in series [2] is reported as 1.03. In series [3], the viability (as a rule, the share of living cells, or the viability signal relative to a control) came to 100%.
For `CC(C)C[C@@H](NC(=O)[C@H](C)NC(=O)CNC(=O)[C@@H](NC=O)C(C)C)C(=O)N[C@@H](C)C(=O)N[C@@H](C(=O)N[C@H](C(=O)N[C@H](CC(C)C)C(=O)N[C@@H](Cc1c[nH]c2ccccc12)C(=O)N[C@H](CC(C)C)C(=O)N[C@@H](Cc1c[nH]c2ccccc12)C(=O)N[C@@H](C(=O)N[C@@H](Cc1c[nH]c2ccccc12)C(=O)N[C@H](CC(C)C)C(=O)N[C@@H](Cc1c[nH]c2ccccc12)C(=O)NCCO)C(C)C)C(C)C)[C@H](C)O` [compound 3247] (For-VGA[dL]A[dT]V[dL]W[dL]W[dV]W[dL]W-NHCH2CH2OH), in that order: “-”, 1.24 and 99.5%.
Regarding `CC(C)C[C@@H](NC(=O)[C@H](C)NC(=O)[C@H](NC(=O)[C@H](C)NC(=O)CNC(=O)[C@@H](NC=O)C(C)C)C(C)C)C(=O)N[C@H](C(=O)N[C@H](CC(C)C)C(=O)N[C@@H](Cc1c[nH]c2ccccc12)C(=O)N[C@H](CC(C)C)C(=O)N[C@@H](Cc1c[nH]c2ccccc12)C(=O)N[C@@H](C(=O)N[C@@H](Cc1c[nH]c2ccccc12)C(=O)N[C@H](CC(C)C)C(=O)N[C@@H](Cc1c[nH]c2ccccc12)C(=O)NCCO)C(C)C)C(C)C` [compound 3255] (For-VGA[dV]A[dL]V[dL]W[dL]W[dV]W[dL]W-NHCH2CH2OH), the antibacterial activity entry in series [1] is listed as “+”. The “H+/Na+ transport activity normalized” value in series [2] came to 1.13. For the same compound, the viability in series [3] worked out at 4.6%.
In the same order, the values of `CC(C)C[C@@H](NC(=O)[C@H](C)NC(=O)[C@H](NC(=O)[C@H](C)NC(=O)CNC(=O)[C@@H](NC=O)C(C)C)C(C)C)C(=O)N[C@H](C(=O)N[C@H](CC(C)C)C(=O)N[C@@H](Cc1c[nH]c2ccccc12)C(=O)N[C@@H](C(=O)N[C@@H](Cc1c[nH]c2ccccc12)C(=O)N[C@H](CC(C)C)C(=O)N[C@@H](Cc1c[nH]c2ccccc12)C(=O)N[C@@H](C(=O)N[C@@H](Cc1c[nH]c2ccccc12)C(=O)NCCO)C(C)C)[C@H](C)O)C(C)C` [compound 3260] (For-VGA[dV]A[dL]V[dL]W[dT]W[dL]W[dV]W-NHCH2CH2OH) are “+”, 1.10 and 100%.
For `CNC(=O)C[C@@H](NC(=O)[C@@H](NC(=O)[C@@H](CC(C)C)NC(=O)[C@H](C)NC(=O)[C@@H](CC(C)C)NC(=O)[C@H](C)NC(=O)CNC(=O)[C@@H](NC=O)C(C)C)C(C)C)C(=O)N[C@@H](Cc1c[nH]c2ccccc12)C(=O)N[C@@H](C(=O)N[C@@H](Cc1c[nH]c2ccccc12)C(=O)N[C@H](CC(C)C)C(=O)N[C@@H](Cc1c[nH]c2ccccc12)C(=O)N[C@@H](C(=O)N[C@@H](Cc1c[nH]c2ccccc12)C(=O)NCCO)[C@H](C)O)C(C)C` [compound 3280] (For-VGA[dL]A[dL]V[dD](NHMe)W[dV]W[dL]W[dT]W-NHCH2CH2OH), in that order: “-”, 1.20 and 100%.
In the same order, the values of `CC(C)C[C@@H](NC(=O)[C@H](C)NC(=O)[C@H](NC(=O)[C@H](C)NC(=O)CNC(=O)[C@@H](NC=O)C(C)C)C(C)C)C(=O)N[C@H](C(=O)N[C@@H](C(=O)N[C@@H](Cc1c[nH]c2ccccc12)C(=O)N[C@H](CC(C)C)C(=O)N[C@@H](Cc1c[nH]c2ccccc12)C(=O)N[C@@H](C(=O)N[C@@H](Cc1c[nH]c2ccccc12)C(=O)N[C@@H](C(=O)N[C@@H](Cc1c[nH]c2ccccc12)C(=O)NCCO)[C@H](C)O)C(C)C)[C@H](C)O)C(C)C` [compound 3328] (For-VGA[dV]A[dL]V[dT]W[dL]W[dV]W[dT]W-NHCH2CH2OH) are “-”, 1.08 and 100%.
In the case of `CNC(=O)C[C@@H](NC(=O)[C@H](Cc1c[nH]c2ccccc12)NC(=O)[C@H](NC(=O)[C@@H](NC(=O)[C@@H](CC(C)C)NC(=O)[C@H](C)NC(=O)[C@@H](CC(C)C)NC(=O)[C@H](C)NC(=O)CNC(=O)[C@@H](NC=O)C(C)C)C(C)C)C(C)C)C(=O)N[C@@H](Cc1c[nH]c2ccccc12)C(=O)N[C@H](CC(C)C)C(=O)N[C@@H](Cc1c[nH]c2ccccc12)C(=O)N[C@@H](C(=O)N[C@@H](Cc1c[nH]c2ccccc12)C(=O)NCCO)C(C)C` [compound 3329] (For-VGA[dL]A[dL]V[dV]W[dD](NHMe)W[dL]W[dV]W-NHCH2CH2OH), the antibacterial activity result in series [1] is recorded as “+”. For the same compound, the “H+/Na+ transport activity normalized” value in series [2] worked out at 1.33. Besides, the viability in series [3] is 100%.
Regarding `CNC(=O)C[C@@H](NC(=O)[C@H](Cc1c[nH]c2ccccc12)NC(=O)[C@H](NC(=O)[C@H](Cc1c[nH]c2ccccc12)NC(=O)[C@@H](CC(C)C)NC(=O)[C@@H](NC(=O)[C@H](NC(=O)[C@H](C)NC(=O)[C@H](NC(=O)[C@H](C)NC(=O)CNC(=O)[C@@H](NC=O)C(C)C)C(C)C)C(C)C)C(C)C)C(C)C)C(=O)N[C@@H](Cc1c[nH]c2ccccc12)C(=O)N[C@@H](C(=O)N[C@@H](Cc1c[nH]c2ccccc12)C(=O)NCCO)C(C)C` [compound 3369] (For-VGA[dV]A[dV]V[dL]W[dV]W[dD](NHMe)W[dV]W-NHCH2CH2OH), the antibacterial activity result in series [1] is “-”. The “H+/Na+ transport activity normalized” value in series [2] is on record as 1.00. Also, the viability in series [3] is 100%.
In the case of `CC(C)C[C@@H](NC(=O)[C@H](C)NC(=O)[C@H](NC(=O)[C@H](C)NC(=O)CNC(=O)[C@@H](NC=O)C(C)C)C(C)C)C(=O)N[C@H](C(=O)N[C@@H](C(=O)N[C@@H](Cc1c[nH]c2ccccc12)C(=O)N[C@@H](C(=O)N[C@@H](Cc1c[nH]c2ccccc12)C(=O)N[C@@H](C(=O)N[C@@H](Cc1c[nH]c2ccccc12)C(=O)N[C@@H](C(=O)N[C@@H](Cc1c[nH]c2ccccc12)C(=O)NCCO)C(C)C)C(C)C)C(C)C)[C@H](C)O)C(C)C` [compound 3492] (For-VGA[dV]A[dL]V[dT]W[dV]W[dV]W[dV]W-NHCH2CH2OH), the antibacterial activity result in series [1] is on record as “-”. In series [2], the “H+/Na+ transport activity normalized” value stood at 1.12. This compound also registered a viability in series [3] of 100%.
In the same order, the values of `CNC(=O)C[C@@H](NC(=O)[C@H](Cc1c[nH]c2ccccc12)NC(=O)[C@H](NC(=O)[C@H](Cc1c[nH]c2ccccc12)NC(=O)[C@@H](CC(C)C)NC(=O)[C@H](Cc1c[nH]c2ccccc12)NC(=O)[C@H](NC(=O)[C@@H](NC(=O)[C@H](NC(=O)[C@H](C)NC(=O)[C@@H](CC(C)C)NC(=O)[C@H](C)NC(=O)CNC(=O)[C@@H](NC=O)C(C)C)C(C)C)C(C)C)C(C)C)C(C)C)C(=O)N[C@@H](Cc1c[nH]c2ccccc12)C(=O)NCCO` [compound 3499] (For-VGA[dL]A[dV]V[dV]W[dL]W[dV]W[dD](NHMe)W-NHCH2CH2OH) are “+”, 1.01 and 100%.
For `CNC(=O)C[C@@H](NC(=O)[C@@H](NC(=O)[C@H](NC(=O)[C@H](C)NC(=O)[C@@H](CC(C)C)NC(=O)[C@H](C)NC(=O)CNC(=O)[C@@H](NC=O)C(C)C)C(C)C)C(C)C)C(=O)N[C@@H](Cc1c[nH]c2ccccc12)C(=O)N[C@@H](C(=O)N[C@@H](Cc1c[nH]c2ccccc12)C(=O)N[C@@H](C(=O)N[C@@H](Cc1c[nH]c2ccccc12)C(=O)N[C@H](CC(C)C)C(=O)N[C@@H](Cc1c[nH]c2ccccc12)C(=O)NCCO)C(C)C)C(C)C` [compound 3596] (For-VGA[dL]A[dV]V[dD](NHMe)W[dV]W[dV]W[dL]W-NHCH2CH2OH), in that order: “-”, 1.06 and 100%.
In the same order, the values of `CC(C)C[C@@H](NC(=O)[C@H](C)NC(=O)CNC(=O)[C@@H](NC=O)C(C)C)C(=O)N[C@@H](C)C(=O)N[C@@H](C(=O)N[C@H](C(=O)N[C@H](CC(C)C)C(=O)N[C@@H](Cc1c[nH]c2ccccc12)C(=O)N[C@@H](C(=O)N[C@@H](Cc1c[nH]c2ccccc12)C(=O)N[C@@H](C(=O)N[C@@H](Cc1c[nH]c2ccccc12)C(=O)N[C@@H](C(=O)N[C@@H](Cc1c[nH]c2ccccc12)C(=O)NCCO)C(C)C)C(C)C)C(C)C)C(C)C)[C@H](C)O` [compound 3733] (For-VGA[dL]A[dT]V[dL]W[dV]W[dV]W[dV]W-NHCH2CH2OH) are “-”, 1.11 and 100%.
